Data on eleven molecules can be found in US8877759B2, “Aminopyrazines as ATR kinase inhibitors” (Vertex Pharnaceuticals Incorporated, priority 2011, dated 2014).

For one assay, the target named is T1, full-length ATR (Homo sapiens, UniProt Q13535).
T1 construct: Assays were carried out at 25° C. in the presence of 5 nM full-length ATR
T1 sequence (Q13535 whole entry): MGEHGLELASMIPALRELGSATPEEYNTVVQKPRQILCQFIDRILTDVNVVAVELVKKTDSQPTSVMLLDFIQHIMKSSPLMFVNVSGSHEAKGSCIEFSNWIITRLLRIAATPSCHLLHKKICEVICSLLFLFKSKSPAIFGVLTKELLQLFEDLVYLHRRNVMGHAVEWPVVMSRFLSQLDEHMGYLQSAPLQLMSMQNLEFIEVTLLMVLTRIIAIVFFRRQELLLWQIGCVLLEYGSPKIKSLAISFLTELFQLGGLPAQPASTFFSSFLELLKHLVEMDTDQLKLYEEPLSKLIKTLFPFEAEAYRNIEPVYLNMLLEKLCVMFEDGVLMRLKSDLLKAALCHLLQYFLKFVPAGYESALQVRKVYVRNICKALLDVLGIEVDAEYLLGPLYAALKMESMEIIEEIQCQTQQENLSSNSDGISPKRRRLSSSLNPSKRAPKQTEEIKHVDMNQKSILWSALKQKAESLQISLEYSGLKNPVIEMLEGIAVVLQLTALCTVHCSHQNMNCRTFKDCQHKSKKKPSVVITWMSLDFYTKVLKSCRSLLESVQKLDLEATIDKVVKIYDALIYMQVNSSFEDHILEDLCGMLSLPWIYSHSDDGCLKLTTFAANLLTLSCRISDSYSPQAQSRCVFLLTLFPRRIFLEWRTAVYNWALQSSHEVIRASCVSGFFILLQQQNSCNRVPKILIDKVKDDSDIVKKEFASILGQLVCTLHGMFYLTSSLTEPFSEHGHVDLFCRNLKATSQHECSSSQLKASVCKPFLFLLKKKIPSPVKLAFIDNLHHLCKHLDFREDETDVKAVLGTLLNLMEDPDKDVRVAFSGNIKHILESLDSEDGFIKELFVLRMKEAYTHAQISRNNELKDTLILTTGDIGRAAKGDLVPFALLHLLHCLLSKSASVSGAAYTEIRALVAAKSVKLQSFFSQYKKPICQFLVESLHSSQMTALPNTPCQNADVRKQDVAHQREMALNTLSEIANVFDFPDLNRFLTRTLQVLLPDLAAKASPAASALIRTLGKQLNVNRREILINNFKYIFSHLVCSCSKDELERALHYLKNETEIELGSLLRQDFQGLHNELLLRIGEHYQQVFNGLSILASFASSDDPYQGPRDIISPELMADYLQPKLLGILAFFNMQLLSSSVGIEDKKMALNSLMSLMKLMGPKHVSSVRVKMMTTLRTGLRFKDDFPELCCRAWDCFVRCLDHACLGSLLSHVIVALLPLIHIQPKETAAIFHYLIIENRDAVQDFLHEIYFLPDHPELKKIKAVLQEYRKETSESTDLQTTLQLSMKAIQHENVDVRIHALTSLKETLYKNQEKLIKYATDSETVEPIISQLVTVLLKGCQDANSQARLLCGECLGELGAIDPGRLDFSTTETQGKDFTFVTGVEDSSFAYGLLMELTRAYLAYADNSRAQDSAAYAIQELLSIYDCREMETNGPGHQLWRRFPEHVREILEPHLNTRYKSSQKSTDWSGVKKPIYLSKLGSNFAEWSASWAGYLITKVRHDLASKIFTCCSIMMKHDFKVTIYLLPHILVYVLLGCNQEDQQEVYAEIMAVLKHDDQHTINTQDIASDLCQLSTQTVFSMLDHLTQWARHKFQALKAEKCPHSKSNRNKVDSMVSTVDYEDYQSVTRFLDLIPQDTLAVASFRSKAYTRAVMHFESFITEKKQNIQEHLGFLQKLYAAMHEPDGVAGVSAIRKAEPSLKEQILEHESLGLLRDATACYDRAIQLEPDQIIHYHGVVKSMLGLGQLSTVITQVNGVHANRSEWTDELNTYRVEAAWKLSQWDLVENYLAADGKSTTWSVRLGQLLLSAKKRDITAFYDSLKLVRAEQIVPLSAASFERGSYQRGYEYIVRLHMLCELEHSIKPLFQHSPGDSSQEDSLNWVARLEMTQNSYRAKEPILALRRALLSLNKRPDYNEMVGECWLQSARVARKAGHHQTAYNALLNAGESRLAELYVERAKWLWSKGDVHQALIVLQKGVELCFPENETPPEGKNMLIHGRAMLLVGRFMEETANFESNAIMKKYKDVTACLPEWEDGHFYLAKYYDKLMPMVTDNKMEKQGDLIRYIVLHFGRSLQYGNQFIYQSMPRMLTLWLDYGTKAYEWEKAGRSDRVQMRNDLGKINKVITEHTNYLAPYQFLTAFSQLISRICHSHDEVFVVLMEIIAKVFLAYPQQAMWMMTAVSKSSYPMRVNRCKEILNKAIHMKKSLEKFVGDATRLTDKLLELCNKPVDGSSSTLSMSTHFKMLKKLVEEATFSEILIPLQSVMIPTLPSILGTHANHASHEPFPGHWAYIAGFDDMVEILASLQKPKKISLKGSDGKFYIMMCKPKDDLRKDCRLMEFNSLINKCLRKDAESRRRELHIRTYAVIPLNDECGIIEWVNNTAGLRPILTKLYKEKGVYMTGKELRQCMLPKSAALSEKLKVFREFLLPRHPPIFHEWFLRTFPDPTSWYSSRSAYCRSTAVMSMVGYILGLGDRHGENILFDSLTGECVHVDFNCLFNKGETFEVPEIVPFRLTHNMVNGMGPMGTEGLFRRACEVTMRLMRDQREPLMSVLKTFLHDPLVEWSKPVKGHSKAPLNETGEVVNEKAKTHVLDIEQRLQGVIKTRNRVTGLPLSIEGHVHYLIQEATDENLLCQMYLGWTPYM
The experiment in a line: ATR Inhibition Assay (radioactive-phosphate incorporation).
Settings: not given
The assay is classed as biochemical.
As to `CC(N)CNc1ccc(-c2nnc(-c3nc(-c4ccnc(C(C)(C)C#N)c4)cnc3N)o2)cc1` (centres unmarked) [Compound I-130], the Ki (commonly the equilibrium dissociation constant of an inhibitor or competing ligand from its target) is less than 1 nM.

Take `CN(C)C1CN(c2ccc(-c3nnc(-c4nc(-c5ccnc(C(C)(C)C#N)c5)cnc4N)o3)cc2)C1` [Compound I-131]: the Ki is less than 1 nM.

Regarding `COc1ccccc1-c1nnc(-c2nc(-c3ccnc(C4(C#N)CCNCC4)c3)cnc2N)o1` [Compound I-133], the Ki is less than 1 nM.

Regarding `Nc1ncc(-c2ccnc(CO)c2)nc1-c1cc(-c2ccc(CNC3CCOCC3)cc2)no1` [Compound I-135], the inhibition constant Ki was less than 1 nM.

On to `N#CCc1cc(-c2cnc(N)c(-c3cc(-c4ccc(CNC5CCOCC5)cc4)no3)n2)ccn1` [Compound I-136], for which the inhibitory constant (Ki) was less than 1 nM.

For `N#CCc1cc(-c2cnc(N)c(-c3nnc(-c4ccc(CNC5CCOCC5)cc4)o3)n2)ccn1` [Compound I-137], the Ki was less than 1 nM.

As to `CC(C)(C#N)c1nccc(-c2cnc(N)c(-c3cc(-c4ccc(CNCC5COC5)cc4)no3)n2)c1F` [Compound I-139], the inhibition constant (Ki) was in the range of 5 to 20 nM.

The same assay, now with this note: Ki(app); 5 nM full-length ATR, 10 μM [γ-33P]ATP, 800 μM target peptide, 25° C.
As to `CC(C)(C#N)c1cc(-c2cnc(N)c(-c3nnc(-c4ccc(C5=NCCN5)cc4)o3)n2)ccn1` [Compound I-129], the “ATR Ki” value is “+++ (Compounds with a Ki value >5 nM but ≦1 nM are marked with “+++.”)”.

On to `CCCN(CCOC)C(=O)c1cc(-c2cnc(N)c(-c3cc(-c4ccccc4)no3)n2)ccn1` [Compound I-132], for which the “ATR Ki” value is reported as “+++ (Compounds with a Ki value >5 nM but ≦1 nM are marked with “+++.”)”.

Regarding `CC(C)(C#N)c1cc(-c2cnc(N)c(-c3nnc(-c4ccc(F)cc4F)o3)n2)ccn1` [Compound I-134], the “ATR Ki” value was “+++ (Compounds with a Ki value >5 nM but ≦1 nM are marked with “+++.”)”.

Turning to `CC(C)(C#N)c1nccc(-c2cnc(N)c(-c3cc(-c4ccc(CNC5CCOCC5)cc4)no3)n2)c1F` [Compound I-138], the “ATR Ki” value was “+++ (Compounds with a Ki value >5 nM but ≦1 nM are marked with “+++.”)”.
